Experimental findings from ChEMBL document CHEMBL1201862, “PubChem BioAssay data set” (2004) are described below.

Some test systems named below: HOP-18; KM-20L2; LXFL 529; RXF 631; SNB-78; XF498; DMS-273; BT-549; MDA-N.
Holding throughout (experiment): NCI anticancer screen, dose series, 48 h

SMILES strings stand for the structures.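 96-well plates; 48 h exposure; 5 concentrations. Endpoints by linear interpolation between flanking doses. Not reached: highest tested concentration assigned. Abbreviation: GI50, concentration required for 50% inhibition of growth.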 The source made the active and inactive calls. No stated cut-off is given here; in the data, active = GI50 up to about 1.1 µM and inactive = higher.

Consider `O=C1OCC2C1C1c3ccccc3C(O)c3ccccc3C21` (stereo not given), for which the GI50 in the assay on HOP-18, in the assay on KM-20L2, with LXFL 529, with RXF 631, in the assay with SNB-78 and with XF498 was > 100 µM (inactive) in each case.

`COc1ccc(C(=O)O)c(Cc2ccc3ccccc3c2)c1`: the GI50 with DMS-273, in the assay on HOP-18, in the assay on KM-20L2, in the assay with LXFL 529, with SNB-78 and in the assay with XF498 was > 100 µM (inactive) each time.

With `Cc1ccc(-c2cc(-c3ccccc3)c(C#N)c(=O)n2C2OC(CO)C(O)C(O)C2O)cc1` (stereo not given), the GI50 in the assay on DMS-273, with HOP-18, in the assay with KM-20L2, in the assay with LXFL 529, in the assay with RXF 631 and with SNB-78 was > 100 µM (inactive) each time.

For `OCC(O)C(OC1OC(CO)C(O)C(O)C1O)c1nn(-c2ccccc2)c2nc3cc(Cl)c(Cl)cc3cc12` (stereo not given), the GI50 in the assay on KM-20L2, in the assay on LXFL 529, in the assay with RXF 631, in the assay on SNB-78 and in the assay on XF498 was > 100 µM (inactive) in each case.

Consider `C#CCN1CCN(C(=S)N/N=C(\C)c2ccccn2)CC1`, for which the GI50 is 1.49 µM (inactive) with BT-549; < 0.0161 µM (active) in the assay on DMS-273; 2.72 µM (inactive) in the assay with HOP-18; < 0.0248 µM (active) with KM-20L2; 0.001 µM (active) with LXFL 529; 1.46 µM (inactive) in the assay on MDA-N. Further, the GI50 is 5.37 µM (inactive) in the assay with SNB-78 and 0.01 µM (active) with XF498.

As to `COc1c(C)c2c(c3c1c(=O)c1ccccc1n3C)C=CC(C)(C)O2`, the GI50 in the assay on DMS-273 was 14.8 µM (inactive); with HOP-18 it was 38.1 µM (inactive); in the assay on KM-20L2 it was 16.4 µM (inactive); with LXFL 529 it was 26 µM (inactive); in the assay with SNB-78, 31.7 µM (inactive); in the assay on XF498, 24.9 µM (inactive).

Take `COC(=O)C1=C(C(=O)OC)C2(OC(C)=O)c3ccccc3-c3ccccc3C12` (stereo not given): the GI50 was 4.98 µM (inactive) in the assay on DMS-273; 5.2 µM (inactive) in the assay with HOP-18; 6.15 µM (inactive) in the assay on KM-20L2; 1.7 µM (inactive) with LXFL 529; 4.95 µM (inactive) in the assay on SNB-78; 12.4 µM (inactive) in the assay with XF498.

`O=C(O)CCC(=O)OCN1C(=O)C2C3C=CC(C2C1=O)C1C2C(=O)N(COC(=O)CCC(=O)O)C(=O)C2C31` (stereo not given): the GI50 in the assay on DMS-273 was > 43.2 µM (inactive); in the assay on HOP-18 it was 76.9 µM (inactive); in the assay on KM-20L2, > 100 µM (inactive); in the assay on LXFL 529, > 100 µM (inactive); in the assay with SNB-78, > 100 µM (inactive); in the assay on XF498 it was > 100 µM (inactive).

On to `NNC(=S)N/N=C/C(=C/Nc1ccccc1)[N+](=O)[O-]`, for which the GI50 with KM-20L2, in the assay on LXFL 529, in the assay on RXF 631 and in the assay on XF498 was > 100 µM (inactive) in each case.

For the compound `COc1ccc(Nc2nc3c(N)cc(C(F)(F)F)cc3nc2-c2ccccc2)cc1OC`, the GI50 in the assay with DMS-273 is 33.5 µM (inactive); in the assay on HOP-18, 13.7 µM (inactive); in the assay with KM-20L2 it was 36.9 µM (inactive); with LXFL 529, 15.3 µM (inactive); in the assay with SNB-78 it was 28.3 µM (inactive); in the assay on XF498, 14.8 µM (inactive).

Take `COC(=O)[C@]1(C)CCC[C@]2(C)C3CC4OOC3(C=C4C(C)(C)O)CCC21` (stereo not given in full): the GI50 with KM-20L2 was 35.8 µM (inactive); with LXFL 529, 22.2 µM (inactive); in the assay with RXF 631, > 100 µM (inactive); in the assay on SNB-78, 30.8 µM (inactive); with XF498, 20.6 µM (inactive).

Turning to `O=C(CCc1cc(-c2ccc(F)cc2)n[nH]1)N(Cc1ccccc1)Cc1ccccc1`, the GI50 in the assay on DMS-273, with HOP-18, in the assay with KM-20L2, with LXFL 529, in the assay with SNB-78 and in the assay with XF498 was > 100 µM (inactive) each time.
